This note sets out measurements from patent US20250230226A1, “PLXDC1/PLXDC2 ACTIVATORS AND THEIR USE IN THE TREATMENT OF BLOOD VESSEL DISORDERS” (THE REGENTS OF THE UNIVERSITY OF CALIFORNIA, priority 2019, published 2025).

For test [1], the system named is pathogenic blood vessels. The test is described as follows: Ischemia-induced retinopathy in vivo (FIG. 22). As to conditions: subcutaneous injection during return to room air; n=10 retinas. More on the design: species or system mice. From the text:
A. Upper graph: Schematic diagram of the experimental design for ischemia-induced retinopathy. The high oxygen environment caused blood vessel loss (vaso-obliteration). In room air, loss of vessels triggered abnormal angiogenesis that generated pathogenic blood vessels on the top of the retina (marked in yellow in D). Treatment was applied during the return to room air by subcutaneous injection. Lower graph: quantitation of healthy blood vessels, vaso-obliteration and pathogenic blood vessels between the control (n=10) and treated retinas (n=10). […] B. Representative images of flat-mounted control retinas (upper two images) and retinas from compound treated mice (lower two images). Red signal is blood vessel marker. C. The same retinas in B with vaso-obliteration areas marked in white color. These images illustrate that compound-treated retinas went through vaso-obliteration like the control retinas. D. The same retinas in B with pathogenic blood vessels marked in yellow color.
FIG. 22A includes a schematic diagram of the experimental design for ischemia-induced retinopathy. The high oxygen environment caused blood vessel loss (vaso-obliteration). In room air, loss of vessels triggered abnormal angiogenesis that generated pathogenic blood vessels on the top of the retina (marked in yellow in FIG. 22D). Treatment was applied during the return to room air by subcutaneous injection. […]

For test [2], the system named is tumor blood vessels. Kind of test: Tumor animal model, bolus IV injection (FIG. 23-26). It is filed as in vivo, mice. Conditions: bolus IV injection at day 0. The source says:
Treatment was done at day 0 by bolus IV injection. A. Raw data of tumor growth curves of the mice in the control group. B. Raw data of tumor growth curves of the mice in the treatment group. C. Comparison of the combined growth data of the control group and the treatment group.
Pictures of the whole animals in the experiment described in FIG. 11 show tumor morphological and color changes on day 1 and day 3. Treatment was done at day 0. Tumors in the treatment groups becomes darker in color on day 1 due to the destruction of tumor blood vessels and accumulation of blood in the tumors. Tumors in the treatment groups start to become yellower in color on day 3, consistent with the onset of tumor necrosis due to the lack of tumor blood vessels.
FIG. 25A-B show tumor morphological changes on live animals due to the treatment by PLXDC1-activating compound. Pictures of the whole animals in the experiment described in FIG. 11 show tumor morphological and color changes on day 7. Treatment was done at day 0. While the tumors in the control group have grown to large sizes, tumors in the treatment groups have highly shrunk in size and become yellow in color.
FIG. 26A-B show morphological changes of dissected tumors due to the treatment by PLXDC1-activating compound. Pictures of the dissected tumors in the experiment described in FIG. 11 show tumor morphological and color changes on day 7. […]

As for `CCCCCCCCCCCCCCOc1ccc(S(=O)(=O)c2cnc3ccc([S+](C)[O-])cc3c2N2CCC(N3CCC(N4CCN(C)CC4)CC3)CC2)cc1` (stereo not drawn) [Compound 346], in test [1], the Healthy blood vessels result was “improving the amount of healthy blood vessels” and the Pathogenic blood vessels entry is given as “highly suppressed pathogenic blood vessels”. In addition, in test [2], the “Tumor growth / shrinkage” value is listed as “shrank the tumors significantly”.
